Reference: US20040063742A1 (priority 2001, published 2004)
pIC50: −log10 of the molar value.

How the values were obtained:
dopamine transporter = target: T1, dopamine transporter (Rattus norvegicus, UniProt P23977); test: Inhibition of in vitro [3H]WIN 35428 binding to the dopamine transporter in rat striatal synaptosomes; conditions: [3H]WIN 35428 1 nM
T1 construct: Striata from male Wistar rats (150-200 g) are homogenized; from tissue; host or cells: rat striatum (male Wistar), membrane pellet
Protocol: Inhibition of In Vitro [^3H]WIN 35428 Binding to the Dopamine Transporter in Rat Striatal Synaptosomes
In this method the ability of test compounds to inhibit the binding of WIN 35428 to the dopamine transporter in vitro is assessed.
Tissue preparation: Striata from male Wistar rats (150-200 g) are homogenized for 5-10 sec in 10 ml NaH2PO4 (50 mM, pH 7.4) using an Ultra-Turrax homogenizer. The suspension is centrifuged at 27,000×g for 15 min. The supernatant is discarded and the pellet is resuspended in phosphate buffer (1000 ml per g of original tissue) and used for binding assays.
Binding assays: Aliquots of 0.5 ml tissue suspension are added to 0.025 ml of test solution and 0.025 ml of [^3H]WIN 35428 (1 nM, final concentration), mixed and incubated for 60 min at 2° C. Non-specific binding is determined using cocaine (30 μM, final concentration).
After incubation 5 ml of ice-cold buffer is added to the samples and poured directly onto Whatman GF/C glass fiber filters (for the [^3H]GBR 12935 assay the filters are presoaked in 0.1% PEI for at least 20 min) under suction and immediately washed with 5 ml ice-cold buffer. The amount of radioactivity on the filters is determined by conventional liquid scintillation counting using a Tri-carb liquid scintillation analyzer (model 1600CA; Packard, USA). […]

[1] = target: T2, 3H-dopamine uptake in striatal synaptosomes (Rattus norvegicus, UniProt P23977); test: In vitro inhibition of 3H-dopamine (3H-DA) uptake in striatal synaptosomes; assay type: biochemical
T2 construct: Corpi striati from male Wistar rats (150-200 g) are homogenised; from tissue; host or cells: rat corpus striatum (male Wistar), P2 synaptosomal pellet
Protocol: In vitro Inhibiti n of ^3H-dopamin (3H-DA) Uptake in Striatal Synaptosom s
In this test, the ability of a compound enhancing the dopamine activity (below: the test compound) to inhibit the uptake of ^3H-dopamine in striatal synaptosomes is assessed.
Tissue preparations: Preparations are performed at 0-4° C. unless otherwise indicated. Corpi striati from male Wistar rats (150-200 g) are homogenised for 5-10 sec in 100 volumes of ice-cold 0.32M sucrose containing 1 mM pargyline using an Ultra-Turrax homogenizer. Monoamine oxidase activity will be inhibited in the presence of pargyline. The homogenate is centrifuged at 1000×g for 10 min. The resulting supernatant is then centrifuged at 27,000×g for 50 min and the supernatant is discarded. […]
Assay: Aliquots of 4.0 ml tissue suspension are added to 100 μl of test solution and 100 μl of ^3H-DA (1 nM, final concentration), mixed and incubated for 25 min at 37° C. Non-specific uptake is determined using benztropine (10 μM, final concentration). […] The amount of radioactivity on the filters is determined by conventional liquid scintillation counting. Specific uptake is calculated as the difference between total uptake and non-specific uptake. […]

[2] = tested on: dopaminergic neurons in dissociated cultures from rat E14 ventral mesencephali; test: Survival of embryonic rat dopaminergic neurons; assay type: cell-based; conditions: TH-immunoreactive cells, 7 days in culture
Protocol: Survival of Embryonic Rat Dopaminergic Neurons
In this experiment the effect of a test compound on the survival of dopaminergic neurons in dissociated cultures established from rat E14 ventral mesencephali (VM) is assessed.
Embryonic rat brains (Wistar; E14) were isolated under sterile conditions placed in chilled Gey's balanced salt solution (GIBCO) with glucose (6.5 mg/ml).
The ventral mesencephali were dissected out, cut into small tissue pieces, placed in Neurobasal medium with B27 supplement and gently pressed through a 80 μm Nitex filter. The cells were counted using a hemocytometer and plated in a 6 well multi-dish at a density of approximately 2.0×10^6 cells/well. Culture dishes were pre-coated with poly-D-lysine.
After 1 hour, the medium was removed and fresh medium added (1.5 ml/well). […] Untreated cultures served as controls. The medium was changed every other day and antimitotics and antibiotics were not used at any stage.
After 7 days in culture, cultures were then immunostained for tyrosine hydroxylase (TH). Briefly, the cells were washed in 0.05M tris-buffered saline (TBS, pH 7.4) containing 1% Triton X-100 for 3×15 minutes and incubated with 10% foetal bovine serum (FBS, Life Technologies) in TBS for 30 minutes. The cells were then incubated for 24 hours at 4° C. with monoclonal mouse anti-TH antibody (Boehringer Mannheim) diluted 1:600 in TBS with 10% FBS. After rinsing in TBS with 1% Triton X-100 for 3×15 minutes, cells were incubated for 60 minutes with biotinylated anti-mouse IgG antibody (Amersham) diluted 1:200 in TBS with 10% FBS. The cells were then washed in TBS with 1% Triton X-100 (3×15 minutes) and incubated for 60 minutes with streptavidine-peroxidase (Dako) diluted 1:200 in TBS with 10% FBS. After washing in TBS (3×15 minutes), bound antibody was visualised by treatment with 0.05% 3,3-diaminobenzidine (Sigma) in TBS containing 0.01% H2O2. TH-immunoreactive (ir) cells were counted manually.

T1 sequence (P23977 whole entry): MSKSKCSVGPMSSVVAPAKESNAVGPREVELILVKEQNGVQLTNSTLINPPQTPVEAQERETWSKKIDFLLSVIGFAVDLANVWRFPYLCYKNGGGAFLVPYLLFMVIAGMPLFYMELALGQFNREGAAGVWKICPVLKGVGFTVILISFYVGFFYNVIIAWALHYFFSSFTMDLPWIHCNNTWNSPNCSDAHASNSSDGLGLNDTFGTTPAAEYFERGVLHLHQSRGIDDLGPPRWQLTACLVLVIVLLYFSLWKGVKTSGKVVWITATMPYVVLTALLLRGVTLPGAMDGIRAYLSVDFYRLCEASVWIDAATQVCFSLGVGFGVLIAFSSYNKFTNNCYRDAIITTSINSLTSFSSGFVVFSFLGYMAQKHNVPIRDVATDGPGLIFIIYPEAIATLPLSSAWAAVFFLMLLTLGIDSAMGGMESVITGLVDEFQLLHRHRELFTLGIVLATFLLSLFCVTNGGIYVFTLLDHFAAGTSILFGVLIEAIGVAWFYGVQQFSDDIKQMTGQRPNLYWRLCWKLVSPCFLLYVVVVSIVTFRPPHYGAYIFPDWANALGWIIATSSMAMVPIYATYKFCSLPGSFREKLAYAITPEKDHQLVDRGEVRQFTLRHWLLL
T2 sequence (P23977 whole entry): as above

Structure (SMILES): O=C1Nc2c(cc(-c3ccc(Cl)cc3)c3c2CCCC3)C1=NO [compound a, 5-(4-Chlorophenyl)-6,7,8,9-tetrahydro-1-H-pyrrolo[3.2-h]naphthalene-2,3-dione-3-oxime]
- pIC50 (dopamine transporter): 6.85
- pIC50 [1]: 7.47
- Inhibition of cell loss ([2]; 0.3 μM compound a): 74%
- Inhibition of cell loss ([2]; 1.0 μM compound a): 62%
- Inhibition of cell loss ([2]; 3.0 μM compound a): 17%
